Data on 41 compounds can be found in US4387238A, “Epoxysuccinamic acid compounds” (Taisho Pharmaceutical Co., Ltd., priority 1978, dated 1983).

The test addresses T1, papain (Carica papaya, UniProt P00784).
T1 construct: purchased Sigma Chem. Co
T1 sequence (P00784 134-345): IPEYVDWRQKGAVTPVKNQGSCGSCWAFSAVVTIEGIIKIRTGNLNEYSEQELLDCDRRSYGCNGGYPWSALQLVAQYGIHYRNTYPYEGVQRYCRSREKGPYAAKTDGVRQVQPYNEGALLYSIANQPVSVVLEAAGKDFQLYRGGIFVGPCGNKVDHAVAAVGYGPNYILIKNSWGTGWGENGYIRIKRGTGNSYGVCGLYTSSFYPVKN
Briefly: Papain inhibitory activity (milk casein proteolysis). Type of test: biochemical. The arrangement: unit not given beside the values. Conditions: amount of inhibitor for 50% inhibition; pH 6.8, 40° C., casein substrate. The protocol: Papain inhibitory activity of the compounds of the present invention was assayed as follows: To 0.5 ml of a solution of papain (80 μg/ml, Sigma Chem. Co., 2x, cry.), were added 0.25 ml of 40 mM cysteine dissolved in 20 mM disodium ethylenediamine tetraacetic acid solution adjusted pH to 6.8 with sodium hydroxide and 0.25 ml of 33 mM phosphate buffer (pH 6.8) with or without inhibitor. After incubation for 15 minutes at 40° C., the resulting mixture was added to 5 ml of 1% milk casein solution in the same buffer as described above, and further incubated for 10 minutes at 40° C. Then the mixture was mixed with 5 ml of 0.44 M trichloroacetic acid solution and followed by filtration with a sheet of Toyo filter paper No. 4.
The extinction of the filtrate was read at 280 nm. The percent inhibition was calculated from the formula, 100×(B-A)/B; wherein B stands for the absorbance without inhibitor and A for the absorbance with inhibitor. The compound Nos. in Table 2 are as defined in Examples as described hereinafter.

Take `CCOC(=O)[C@@H]1O[C@H]1C(=O)Nc1ccccc1C(=O)O` (relative stereo) [Compound No. 81, ethyl N-2'-carboxyphenyl-2,3-epoxysuccinamate]: the ID50 is recorded as 36.76 γ.

Regarding `CCOC(=O)[C@@H]1O[C@H]1C(=O)NCC1CCCCC1` (relative stereo) [Compound No. 20, ethyl N-cyclohexanemethyl-2,3-epoxysuccinamate], the ID50 is 20.49 γ.

In the case of `O=C(O)C1OC1C(=O)N1CCCC1C(=O)O` (centres unmarked) [Compound No. 99, potassium N-1'-carbopotassium oxytetramethylene-2,3-epoxysuccinamate], the ID50 is recorded as 0.104 γ.

`O=C(O)[C@@H]1O[C@H]1C(=O)NCC1CCCC1` (relative stereo) [Compound No. 108, N-Cyclopentanemethyl-2,3-epoxysuccinamic acid]: the ID50 is 0.234 γ.

Turning to `CCOC(=O)[C@H]1O[C@@H]1C(=O)NCCCCNC(=O)OCc1ccccc1` (relative stereo) [Compound No. 68, ethyl N-carbobenzoxyaminobutyl-2,3-epoxysuccinamate], the ID50 is given as 24.04 γ.

On to `CCNC(=O)[C@H]1O[C@@H]1C(=O)OC(C)C` (relative stereo) [Compound No. 65, Isopropyl N-ethyl-2,3-epoxysuccinamate], for which the ID50 is recorded as 13.65 γ.

`CCOC(=O)[C@@H]1O[C@H]1C(=O)Nc1cc(Cl)ccc1C(=O)O` (relative stereo) [Compound No. 82, ethyl N-2'-carboxy-5'-chlorophenyl-2,3-epoxysuccinamte]: the ID50 was 277.80 γ.

Regarding `O=C(Nc1ccccc1)[C@H]1O[C@@H]1C(=O)OC1C=CCC1` (relative stereo) [Compound No. 46, 2'-Cyclopentenyl N-phenyl-2,3-epoxysuccinamate], the ID50 was 2.98 γ.

Take `O=C(O)[C@@H]1O[C@H]1C(=O)NC1CCCCC1` (relative stereo) [Compound No. 100, sodium N-cyclohexyl-2,3-epoxysuccinamate]: the ID50 is given as 0.231 γ.

In the case of `O=C(O)[C@@H]1O[C@H]1C(=O)NCc1ccccc1` (relative stereo) [Compound No. 96, potassium N-benzyl-2,3-epoxysuccinamate], the ID50 is on record as 0.158 γ.

On to `COC(=O)[C@@H]1O[C@H]1C(=O)NC(C)C` (stereo in doubt) [Compound No. 34, Methyl N-isopropyl-2,3-epoxysuccinamate], for which the ID50 is reported as 32.35 γ.

`CCOC(=O)[C@@H]1O[C@H]1C(=O)N1CCCCC1C(=O)OCc1ccccc1` (relative stereo) [Compound No. 92, Ethyl N-1'-carbobenzoxypentamethylene-2,3-epoxysuccinamate]: the ID50 is recorded as 120.10 γ.

Turning to `COc1ccccc1NC(=O)[C@H]1O[C@@H]1C(=O)OC(C)C` (relative stereo) [Compound No. 37, Isopropyl N-2'-methoxyphenyl-2,3-epoxysuccinamate], the ID50 is on record as 5.81 γ.

`CCOC(=O)c1ccccc1NC(=O)[C@@H]1O[C@H]1C(=O)OCC` (relative stereo) [Compound No. 7, ethyl N-2'-carboethoxyphenyl-2,3-epoxysuccinamate]: the ID50 is listed as 105.93 γ.

Consider `CNC(=O)[C@H]1O[C@@H]1C(=O)OCc1ccccc1` (relative stereo) [Compound No. 91, Benzyl N-methyl-2,3-epoxysuccinamate], for which the ID50 is 9.68 γ.

In the case of `CC#CCOC(=O)[C@H]1O[C@@H]1C(=O)NCC` (relative stereo) [Compound No. 41, 2'-Butynyl N-ethyl-2,3-epoxysuccinamate], the ID50 was 15.23 γ.

Take `O=C(NC1CCCC1)[C@H]1O[C@@H]1C(=O)Oc1ccccc1` (relative stereo) [Compound No. 47, Phenyl N-cyclopentyl-2,3-epoxysuccinamate]: the ID50 was 3.64 γ.

For `CNC(=O)[C@H]1O[C@@H]1C(=O)Oc1ccccc1` (relative stereo) [Compound No. 84, phenyl N-methyl-2,3-epoxysuccinamate], the ID50 is given as 12.65 γ.

In the case of `CCOC(=O)[C@@H]1O[C@H]1C(=O)N1CCCC1C` (relative stereo) [Compound No. 75, ethyl N-1'-methyltetramethylene-2,3-epoxysuccinamate], the ID50 was 130.10 γ.

For the compound `CCCOC(=O)[C@H]1O[C@@H]1C(=O)NC(C)C` (relative stereo) [Compound No. 64, Propyl N-isopropyl-2,3-epoxysuccinamate], the ID50 is 8.32 γ.

With `CCOC(=O)[C@@H]1O[C@H]1C(=O)Nc1c(Cl)cccc1Cl` (relative stereo) [Compound No. 8, ethyl N-2',6'-dichlorophenyl-2,3-epoxysuccinamate], the ID50 is on record as 208.33 γ.

Take `O=C(Nc1ccc(I)cc1)[C@@H]1O[C@H]1C(=O)OC1CCCC1` (relative stereo) [Compound No. 24, cyclopentyl N-4'-iodophenyl-2,3-epoxysuccinamate]: the ID50 is given as 3.47 γ.

As for `CCOC(=O)[C@@H]1O[C@H]1C(=O)N1CCCCC1` (relative stereo) [Compound No. 77, Ethyl N-pentamethylene-2,3-epoxysuccinamate], the ID50 was 145.21 γ.

Take `CNC(=O)[C@@H]1O[C@H]1C(=O)OCCC(C)C` (relative stereo) [Compound No. 89, Isoamyl N-methyl-2,3-epoxysuccinamate]: the ID50 is on record as 14.81 γ.

Take `CCOC(=O)[C@@H]1O[C@H]1C(=O)Nc1c(Br)cc(Br)cc1Br` (relative stereo) [Compound No. 9, ethyl N-2',4',6'-tribromophenyl-2,3-epoxysuccinamate]: the ID50 is recorded as 120.19 γ.

`CCOC(=O)[C@@H]1O[C@H]1C(=O)N1CCCC1` (relative stereo) [Compound No. 73, ethyl N-tetramethylene-2,3-epoxysuccinamate]: the ID50 is 128.50 γ.

Turning to `CCOC(=O)[C@@H]1O[C@H]1C(=O)NCc1ccco1` (relative stereo) [Compound No. 14, ethyl N-furfuryl-2,3-epoxysuccinamate], the ID50 is 67.57 γ.

For `CCOC(=O)[C@@H]1O[C@H]1C(=O)N(C)CC1CCCCC1` (relative stereo) [Compound No. 32, ethyl N-methyl-N-cyclohexanemethyl-2,3-epoxysuccinamate], the ID50 is given as 71.40 γ.

Regarding `CCOC(=O)[C@H]1O[C@@H]1C(=O)N(CC)CC` (relative stereo) [Compound No. 57, ethyl N,N-diethyl-2,3-epoxysuccinamate], the ID50 is reported as 46.30 γ.

For the compound `CCNC(=O)[C@H]1O[C@@H]1C(=O)OC` (relative stereo) [Compound No. 54, methyl N-ethyl-2,3-epoxysuccinamate], the ID50 is 10.07 γ.

Take `C=CCOC(=O)[C@@H]1O[C@H]1C(=O)Nc1ccccc1` (relative stereo) [Compound No. 30, allyl N-phenyl-2,3-epoxysuccinamate]: the ID50 is given as 3.68 γ.

As to `O=C(NC1CCCCC1)[C@H]1O[C@@H]1C(=O)OC1CCCCC1` (relative stereo) [Compound No. 44, Cyclohexyl N-cyclohexyl-2,3-epoxysuccinamate], the ID50 is recorded as 3.14 γ.

As for `CCOC(=O)[C@@H]1O[C@H]1C(=O)NCCc1ccccc1` (relative stereo) [Compound No. 15, ethyl N-phenethyl-2,3-epoxysuccinamate], the ID50 is recorded as 26.04 γ.

For the compound `CCOC(=O)[C@@H]1O[C@H]1C(=O)N(C)C` (relative stereo) [Compound No. 85, ethyl N,N-dimethyl-2,3-epoxysuccinamate], the ID50 is 39.50 γ.

Take `COC(=O)[C@H]1O[C@@H]1C(=O)Nc1ccccc1` (relative stereo) [Compound No. 50, methyl N-phenyl-2,3-epoxysuccinamate]: the ID50 is 16.95 γ.

Turning to `CCOC(=O)[C@@H]1O[C@H]1C(=O)NCC1CC1` (relative stereo) [Compound No. 83, ethyl N-cyclopropanemethyl-2,3-epoxysuccinamate], the ID50 is 130.20 γ.

For the compound `CCOC(=O)[C@@H]1O[C@H]1C(=O)NC1CCCCC1` (relative stereo) [Compound No. 19, ethyl N-cyclohexyl-2,3-epoxysuccinamate], the ID50 is listed as 20.83 γ.

Take `O=C(O)[C@@H]1O[C@H]1C(=O)Nc1ccccc1` (relative stereo) [Compound No. 95, potassium N-phenyl-2,3-epoxysuccinamate]: the ID50 was 0.330 γ.

On to `CCCNC(=O)[C@@H]1O[C@H]1C(=O)OCC` (relative stereo) [Compound No. 16, ethyl N-propyl-2,3-epoxysuccinamate], for which the ID50 is 22.73 γ.

As to `CCOC(=O)[C@H]1O[C@@H]1C(=O)N(CC(C)C)CC(C)C` (relative stereo) [Compound No. 56, ethyl N,N-diisobutyl-2,3-epoxysuccinamate], the ID50 is given as 148.80 γ.

Take `CCOC(=O)[C@@H]1O[C@H]1C(=O)Nc1cccc2cccnc12` (relative stereo) [Compound No. 12, ethyl N-8'-quinolinyl-2,3-epoxysuccinamate]: the ID50 is 20.16 γ.
